Measured values reported in patent US9730905B2, “Monounsaturated fatty acid for preventing and/or treating skin complexion imperfections” (L'OREAL, priority 2010, dated 2017).

Tested on: skin tissue
Experiment: Inventors' demonstration of the effect of monounsaturated fatty acids on skin tissue and complexion
Details: in vivo

`CCCCCCCCCCC/C=C\CCCCC(=O)O` [petroselinic acid] was tested, and the “restoration of normal skin tissue / complexion” value was “lead to a restoration of normal skin tissue in perfect homeostasis”.
